Experimental data from US20260250250A1, “3-(SULPHONYL OR SULFONIMIDOYL)PROP-2-EN-1-YL]-2-OXO-1,2-DIHYDROPYRIDINE-3-CARBOXAMIDE DERIVATIVES” (Flinder Therapeutics B.V., priority 2022, published 2026).

Experiments:
NF-κB signaling pathway = experiment: Cell-based dual luciferase NF-κB reporter assay (HEK293 cells, TNF stimulated); conditions: Homo sapiens, HEK293
How it was run: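 HEK293 cells transfected with Firefly luciferase and NF-κB-response-element NanoLuc plasmids; compounds at 100–0.005 µM in 1% DMSO. Cells stimulated with 2.5 ng/mL TNF 30 min after compound addition. Firefly and NanoLuc activities read after 6 h by Nano-Glo dual-luciferase detection.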

[1] = target: T1, human E3 ubiquitin-protein ligase RNF31 (HOIP) (Homo sapiens, UniProt Q96EP0); experiment: Cell-free HTRF-based HOIP inhibition assay; type: biochemical
T1 sequence (Q96EP0 695-1072 limits assumed): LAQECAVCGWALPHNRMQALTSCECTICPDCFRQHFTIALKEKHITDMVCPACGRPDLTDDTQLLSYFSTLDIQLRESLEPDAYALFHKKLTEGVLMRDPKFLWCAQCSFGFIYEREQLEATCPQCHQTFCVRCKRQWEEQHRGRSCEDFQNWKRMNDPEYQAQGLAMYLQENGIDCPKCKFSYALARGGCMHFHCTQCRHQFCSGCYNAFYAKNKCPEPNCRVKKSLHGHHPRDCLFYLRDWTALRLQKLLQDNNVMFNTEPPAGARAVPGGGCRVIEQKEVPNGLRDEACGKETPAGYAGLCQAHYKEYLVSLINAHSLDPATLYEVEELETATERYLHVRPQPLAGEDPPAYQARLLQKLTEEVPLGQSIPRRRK
How it was run: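 Recombinant human HOIP fragment (E. coli) preincubated with compounds (100-0.005 μM, 1% DMSO) and E1 for 1 h at 25° C. E2 and substrates then added; reaction 2.5 h at 25° C. HTRF read-out, excitation 337 nm, emissions 665/620 nm.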

[2] = test system: bladder carcinoma RT4 cell line; experiment: TNF-α-induced cytotoxicity assay (CellTiter-Glo viability); type: cell-based; conditions: Homo sapiens, RT-4, 72 h
How it was run: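 RT4 bladder carcinoma cells, 1000 per well, stimulated with 1.25 ng/mL TNFα together with compound for 72 h at 37° C., 5% CO2. Viability read by CellTiter-Glo luminescence, proportional to cellular ATP, as a measure of HOIP-dependent cytotoxicity.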

| SMILES | IC50 (NF-κB signaling pathway) [nM] | IC50 [1] [nM] | IC50 [2] [nM] |
| --- | --- | --- | --- |
| N#Cc1ccc(S(=N)(=O)/C=C/CNC(=O)c2cc3c([nH]c2=O)CCCC3)cc1 (stereo not drawn) [Example 136, N-[(2E)-3-[(4-cyanophenyl)(imino)oxo-λ^6-sulfanyl]prop-2-en-1-yl]-2-oxo-1,2,5,6,7,8-hexahydroquinoline-3-carboxamide] | ≤ 1000 | ≤ 100 | ≤ 10000 |
| O=C(NC/C=C/S(=O)(=O)c1ccc(Cl)cc1)c1cc2c([nH]c1=O)CCN(C(=O)OCCF)C2 [Example 93, 2-fluoroethyl 3-{[(2E)-3-(4-chlorobenzenesulfonyl)prop-2-en-1-yl]carbamoyl}-2-oxo-1,2,5,6,7,8-hexahydro-1,6-naphthyridine-6-carboxylate] | ≤ 1000 | ≤ 100 | ≤ 1000 |
| O=C(NC/C=C/S(=O)(=O)c1ccccc1)c1cc2c([nH]c1=O)CCN(C(=O)C1CC1)C2 [Example 109, N-[(2E)-3-(benzenesulfonyl)prop-2-en-1-yl]-6-cyclopropanecarbonyl-2-oxo-1,2,5,6,7,8-hexahydro-1,6-naphthyridine-3-carboxamide] | ≤ 100000 | ≤ 1000 | ≤ 100000 |
| O=C(NC/C=C/S(=O)(=O)c1ccc(Br)cc1)c1cc2c([nH]c1=O)CCCC2 [Example 5, N-[(2E)-3-(4-bromobenzenesulfonyl)prop-2-en-1-yl]-2-oxo-1,2,5,6,7,8-hexahydroquinoline-3-carboxamide] | ≤ 1000 | ≤ 100 | ≤ 1000 |
| COc1c(C)cc(S(=N)(=O)/C=C/CNC(=O)c2cc3c([nH]c2=O)CCCC3)cc1C (stereo not drawn) [Example 63, N-[(2E)-3-[Imino(4-methoxy-3,5-dimethylphenyl)oxo-λ^6-sulfanyl]prop-2-en-1-yl]-2-oxo-1,2,5,6,7,8-hexahydroquinoline-3-carboxamide] | ≤ 1000 | ≤ 1000 | ≤ 1000 |
| CC(OC(=O)N1CCc2[nH]c(=O)c(C(=O)NC/C=C/S(=O)(=O)c3ccccc3)cc2C1)C(F)(F)F (stereo not drawn) [Example 72, 1,1,1-trifluoropropan-2-yl 3-{[(2E)-3-(benzenesulfonyl)prop-2-en-1-yl]carbamoyl}-2-oxo-1,2,5,6,7,8-hexahydro-1,6-naphthyridine-6-carboxylate] | ≤ 1000 | ≤ 1000 | ≤ 1000 |
| COc1ccc(S(=O)(=O)/C=C/CNC(=O)c2cc3c([nH]c2=O)CCCC3)cc1OC [Example 45, N-[(2E)-3-(3,4-dimethoxybenzenesulfonyl)prop-2-en-1-yl]-2-oxo-1,2,5,6,7,8-hexahydroquinoline-3-carboxamide] | ≤ 1000 | ≤ 1000 | ≤ 10000 |
| O=C(NC/C=C/S(=O)(=O)c1ccccc1)c1cc2c([nH]c1=O)CCN(C(=O)OCC(F)F)C2 [Example 77, 2,2-Difluoroethyl 3-{[(2E)-3-(benzenesulfonyl)prop-2-en-1-yl]carbamoyl}-2-oxo-1,2,5,6,7,8-hexahydro-1,6-naphthyridine-6-carboxylate] | ≤ 1000 | ≤ 100 | ≤ 10000 |
| O=C(NC/C=C/S(=O)(=O)c1ccc(Cl)cn1)c1cc2c([nH]c1=O)CCCC2 [Example 11, N-[(2E)-3-[(5-chloropyridin-2-yl)sulfonyl]prop-2-en-1-yl]-2-oxo-1,2,5,6,7,8-hexahydroquinoline-3-carboxamide] | ≤ 1000 | ≤ 100 | ≤ 1000 |

Second part, led by results:

| IC50 (NF-κB signaling pathway) [nM] | IC50 [1] [nM] | SMILES | IC50 [2] [nM] |
| --- | --- | --- | --- |
| ≤ 1000 | ≤ 1000 | N=S(=O)(/C=C/CNC(=O)c1cc2c([nH]c1=O)CCCC2)c1ccc(OC(F)(F)F)cc1 (stereo not drawn) [Example 65, N-[(2E)-3-[imino(oxo)[4-(trifluoromethoxy)phenyl]-%^6-sulfanyl]prop-2-en-1-yl]-2-oxo-1,2,5,6,7,8-hexahydroquinoline-3-carboxamide] | ≤ 1000 |
| ≤ 10000 | ≤ 1000 | N=S(=O)(/C=C/CNC(=O)c1cc2c([nH]c1=O)CCN(C(=O)OCC1CC1)C2)c1ccccc1 (stereo not drawn) [Example 179, cyclopropylmethyl 3-{[(2E)-3-[imino(oxo)phenyl-λ^6-sulfanyl]prop-2-en-1-yl]carbamoyl}-2-oxo-1,2,5,6,7,8-hexahydro-1,6-naphthyridine-6-carboxylate] | ≤ 10000 |
| ≤ 10000 | ≤ 1000 | COc1ccc(S(=N)(=O)/C=C/CNC(=O)c2cc3c([nH]c2=O)CCC(C(F)(F)F)C3)cc1F (stereo not drawn) [Example 147, N-[(2E)-3-[(3-fluoro-4-methoxyphenyl)(imino)oxo-λ^6-sulfanyl]prop-2-en-1-yl]-2-oxo-6-(trifluoromethyl)-1,2,5,6,7,8-hexahydroquinoline-3-carboxamide] | ≤ 10000 |
| ≤ 1000 | ≤ 1000 | CN(C)c1ccc(S(=O)(=O)/C=C/CNC(=O)c2cc3c([nH]c2=O)CCCC3)cc1 [Example 54, N-[(2E)-3-[4-(dimethylamino)benzenesulfonyl]prop-2-en-1-yl]-2-oxo-1,2,5,6,7,8-hexahydroquinoline-3-carboxamide] | ≤ 1000 |
| ≤ 1000 | ≤ 100 | O=C(NC/C=C/S(=O)(=O)c1ccc(Cl)cn1)c1cc2c([nH]c1=O)CCN(C(=O)OCC1CC1)C2 [Example 95, cyclopropylmethyl 3-{[(2E)-3-[(5-chloropyridin-2-yl)sulfonyl]prop-2-en-1-yl]carbamoyl}-2-oxo-1,2,5,6,7,8-hexahydro-1,6-naphthyridine-6-carboxylate] | ≤ 10000 |
| ≤ 10000 | ≤ 100 | COc1ccc(S(=N)(=O)/C=C/CNC(=O)c2cc3c([nH]c2=O)CCN(C(=O)OCC(F)F)C3)cc1F (stereo not drawn) [Example 178, 2,2-difluoroethyl 3-{[(2E)-3-[(3-fluoro-4-methoxyphenyl)(imino)oxo-λ^6-sulfanyl]prop-2-en-1-yl]carbamoyl}-2-oxo-1,2,5,6,7,8-hexahydro-1,6-naphthyridine-6-carboxylate] | ≤ 10000 |
| ≤ 10000 | ≤ 1000 | COc1ccc(S(=N)(=O)/C=C/CNC(=O)c2cc3c([nH]c2=O)CCC3)cc1F (stereo not drawn) [Example 151, N-[(2E)-3-[(3-fluoro-4-methoxyphenyl)(imino)oxo-λ^6-sulfanyl]prop-2-en-1-yl]-2-oxo-1H,2H,5H,6H,7H-cyclopenta[b]pyridine-3-carboxamide] | ≤ 1000 |
| ≤ 1000 | ≤ 100 | N=S(=O)(/C=C/CNC(=O)c1cc2c([nH]c1=O)CCCC2)c1ccc(Cl)cc1 (stereo not drawn) [Example 131, N-[(2E)-3-[(4-chlorophenyl)(imino)oxo-λ^6-sulfanyl]prop-2-en-1-yl]-2-oxo-1,2,5,6,7,8-hexahydroquinoline-3-carboxamide] | ≤ 1000 |
| ≤ 1000 | ≤ 100 | CC(C)(C)OC(=O)N1CCc2[nH]c(=O)c(C(=O)NC/C=C/S(=O)(=O)c3ccccc3)cc2C1 [Example 10, tert-butyl 3-{[(2E)-3-(benzenesulfonyl)prop-2-en-1-yl]carbamoyl}-2-oxo-1,2,5,6,7,8-hexahydro-1,6-naphthyridine-6-carboxylate] | ≤ 10000 |
| ≤ 1000 | ≤ 1000 | O=C(NC/C=C/S(=O)(=O)c1cccs1)c1cc2c([nH]c1=O)CCCC2 [Example 44, 2-oxo-N-[(2E)-3-(thiophene-2-sulfonyl)prop-2-en-1-yl]-1,2,5,6,7,8-hexahydroquinoline-3-carboxamide] | ≤ 1000 |
| ≤ 1000 | ≤ 1000 | COc1ccc(S(=N)(=O)/C=C/CNC(=O)c2cc3c([nH]c2=O)CCC(C)C3)cc1F (stereo not drawn) [Example 142, N-[(2E)-3-[(3-fluoro-4-methoxyphenyl)(imino)oxo-λ^6-sulfanyl]prop-2-en-1-yl]-6-methyl-2-oxo-1,2,5,6,7,8-hexahydroquinoline-3-carboxamide] | ≤ 1000 |
| ≤ 1000 | ≤ 1000 | [2H]C([2H])(/C=C/S(=O)(=O)c1ccccc1)NC(=O)c1cc2c([nH]c1=O)CCCC2 [Example 53, N-[(2E)-3-(benzenesulfonyl)(1,1-^2H2)prop-2-en-1-yl]-2-oxo-1,2,5,6,7,8-hexahydroquinoline-3-carboxamide] | ≤ 1000 |
| ≤ 10000 | ≤ 100 | O=C(NC/C=C/S(=O)(=O)c1ccccc1)c1cc2c([nH]c1=O)CCN(C(=O)c1nc(C3CC3)cs1)C2 [Example 116, N-[(2E)-3-(benzenesulfonyl)prop-2-en-1-yl]-6-(4-cyclopropyl-1,3-thiazole-2-carbonyl)-2-oxo-1,2,5,6,7,8-hexahydro-1,6-naphthyridine-3-carboxamide] | ≤ 10000 |
| ≤ 1000 | ≤ 100 | COc1ccc(S(=N)(=O)/C=C/CNC(=O)c2cc3c([nH]c2=O)CCCC3)cc1Cl (stereo not drawn) [Example 133, N-[(2E)-3-[(3-chloro-4-methoxyphenyl)(imino)oxo-λ^6-sulfanyl]prop-2-en-1-yl]-2-oxo-1,2,5,6,7,8-hexahydroquinoline-3-carboxamide] | ≤ 1000 |
